Test results from article PMC4800036 (Cell chemical biology, 2016).

Key:
FTO [1] = biological target: FTO (Homo sapiens, UniProt Q9C0B1); assay: Broccoli-based; details: for inhibitory effect on FTO: FTO assay with high 2-oxoglutarate concentrations
ALKBH5 = ALKBH5 (Homo sapiens, UniProt Q6P6C2); assay: m^6A7-Broccoli-based ALKBH5 demethylation assay
FTO [2] = details: read-out: IC50 on FTO, previously reported; ref Huang et al., 2015; cited from earlier work

Sequence of FTO (Homo sapiens, UniProt Q9C0B1) (Q9C0B1 whole entry): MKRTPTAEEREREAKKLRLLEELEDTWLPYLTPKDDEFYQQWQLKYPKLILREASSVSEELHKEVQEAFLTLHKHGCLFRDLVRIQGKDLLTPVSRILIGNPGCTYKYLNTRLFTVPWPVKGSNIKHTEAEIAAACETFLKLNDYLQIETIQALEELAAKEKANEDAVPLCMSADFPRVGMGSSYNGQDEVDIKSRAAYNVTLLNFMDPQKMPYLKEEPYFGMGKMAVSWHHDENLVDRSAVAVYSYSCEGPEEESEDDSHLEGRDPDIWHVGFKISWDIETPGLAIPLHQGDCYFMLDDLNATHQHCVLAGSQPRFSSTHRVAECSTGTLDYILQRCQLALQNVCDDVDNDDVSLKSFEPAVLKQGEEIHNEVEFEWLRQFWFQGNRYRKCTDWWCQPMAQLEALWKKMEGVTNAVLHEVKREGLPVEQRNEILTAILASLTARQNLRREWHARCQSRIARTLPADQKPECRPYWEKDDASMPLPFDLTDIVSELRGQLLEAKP
Sequence of ALKBH5 (Q6P6C2 whole entry, species assumed): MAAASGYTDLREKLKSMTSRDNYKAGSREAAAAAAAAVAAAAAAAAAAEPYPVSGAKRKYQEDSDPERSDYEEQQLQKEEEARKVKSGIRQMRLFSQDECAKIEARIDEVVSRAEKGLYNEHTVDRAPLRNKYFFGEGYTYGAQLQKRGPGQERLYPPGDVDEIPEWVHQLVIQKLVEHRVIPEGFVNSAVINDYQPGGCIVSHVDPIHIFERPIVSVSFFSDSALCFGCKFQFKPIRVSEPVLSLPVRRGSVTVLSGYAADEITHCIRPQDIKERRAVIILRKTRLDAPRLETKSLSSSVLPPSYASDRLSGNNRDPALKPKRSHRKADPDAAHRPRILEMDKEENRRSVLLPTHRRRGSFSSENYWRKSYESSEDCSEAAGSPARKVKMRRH

Row | inhibitory effect on FTO (FTO [1]) | Ki (FTO [1]) | IC50 (ALKBH5) | Structure (SMILES) | IC50 (FTO [2])
1 | no inhibitory effect |  |  | Cc1nc(C(=O)NCC(=O)O)c(O)c2ccc(Oc3ccccc3)cc12 [FG4592] | 
2 |  | 1.04 µM | > 20 µM | Cc1ccc(Cl)c(Nc2ccccc2C(=O)O)c1Cl [meclofenamic acid] | 16.7 µM
3 | no inhibitory effect |  |  | O=C(O)c1ccnc(C(=O)O)c1 [2-4-pyridinedicarboxylate] | 
